In US5089515A, “Lipid-peroxide formation inhibiting composition and novel compounds useful therefor” (priority 1986, dated 1992):
Entries after “also recorded” stand apart in the source; their conditions may differ.

test system: central nervous system; experiment: not given; details: IYAKUHIN KENKYU, 16, 1 (1985); cited from earlier work

Molecule	depressing the central nervous system
CCN(CC)Cc1nccn1-c1ccc([N+](=O)[O-])cc1C(=O)c1ccccc1Cl [nizofenone]	defective in depressing the central nervous system

test system: lipid peroxidation due to active oxygen species; experiment: not given; details: prior art; cited from earlier work

Molecule	inhibition of lipid peroxidation
COC1=C(OC)C(=O)C(CCCCCCCCCCO)=C(C)C1=O [Idebenon]	known to inhibit lipid peroxidation due to active oxygen species
CCN(CC)Cc1nccn1-c1ccc([N+](=O)[O-])cc1C(=O)c1ccccc1Cl [nizofenone]	known to inhibit lipid peroxidation due to active oxygen species
vitamin E	known to inhibit lipid peroxidation due to active oxygen species; also recorded: not sufficient to inhibiting lipid peroxidation

test system: cerebral ischemia model; experiment: Cerebral protective activity in cerebral ischemia model; format: in vivo, Wistar-strain male rat; details: 10 mg/kg into the duodenum, 30 minutes before 10 minutes ischemia; after release of ischemia
Description: (2) Cerebral protective activity in cerebral ischemia model
A Wistar-strain male rat weighing about 400 g was intramuscularly dosed with 0.6 mg of d-tubocurarine to immobilize. After inserting a trachea cannula, the head was fixed to the stereofaxic apparatus under artificial respiration. After incising the head skin and drilling the cranial bone, an electrode for recording electroencephalogram was placed on the surface of the left frontal cortex. After fixing the electrode to the cranial bone using dental cement, the rat was supported in the rear position. Then, a cannula for measuring the blood pressure was intubated to the left femoral artery and another cannula for additionally dosing d-tubocurarine was also intubated to the left femoral vein. The heart rate was measured by a cardiotachometer triggered by pulse pressure.
After reaching the stable state of several parameters including blood pressure, heart rate and electroencephalogram, the effective ingredient of the present invention which was previously prepared so as to form suspension of 1 ml/kg with 1% tragacanth gum solution was directly dosed into the duodenum in a dose of 10 mg/kg at 30 minutes before cerebral ischemia loading. The control group were dosed by the same volume of 1% tragacanth gum solution only.
The blood pressure, heart rate and electroencephalogram were monitored 10 to 20 minutes after drug dosing with the multipurpose polygraph (Model RM-85, made by Nihon Kohden Co., Ltd.), and operation was made according to the following procedure:
Firstly, the ribs were freed from the left costal cartilage and the chest was opened. Then, 30 minutes after drug dosing, the left common carotid artery, left vertebral artery and brachiocephalic artery were simultaneously plugged at the origin of the arteries with artery clips to stop the blood flow into the brain for 10 minutes.
The resumption of blood flow into the brain was conducted by simultaneously releasing the artery clips which were attached to said positions.
The cerebral protective activity of the drug against the disturbance after the release of cerebral ischemic load was investigated by the restoration of electroencephalogram.
During the experiment, the rectal temperature was maintained at 37-38° C. with a heating pad and continuously recorded on the recorder along with electroencephalogram, femoral blood pressure and heart rate.

Molecule	restoration of electroencephalogram
O=C1CC(Cc2cccnc2)=NN1c1ccccc1 [compound 24]	the electroencephalogram appeared with restoration during the releasing
O=C1CC(c2cccnc2)=NN1c1ccccc1 [Compound No. 1, 1-phenyl-3-(3-pyridyl)-2-pyrazolin-5-one]	the electroencephalogram appeared with restoration during the releasing

same assay, conditions: 10 mg/kg into the duodenum; after release of ischemia

Molecule	function of the pulsation system
O=C1CC(Cc2cccnc2)=NN1c1ccccc1 [compound 24]	the function of the pulsation system was activated and normalized
O=C1CC(c2cccnc2)=NN1c1ccccc1 [Compound No. 1, 1-phenyl-3-(3-pyridyl)-2-pyrazolin-5-one]	the function of the pulsation system was activated and normalized

same assay, conditions: 10 mg/kg into the duodenum; control died 75 minutes in average from blood reflow

Molecule	survival period of time
O=C1CC(Cc2cccnc2)=NN1c1ccccc1 [compound 24]	the survival period of time of the animals of the group was clearly extended
O=C1CC(c2cccnc2)=NN1c1ccccc1 [Compound No. 1, 1-phenyl-3-(3-pyridyl)-2-pyrazolin-5-one]	the survival period of time of the animals of the group was clearly extended

test system: not given; experiment: not given; details: cited from earlier work

Molecule	solubility in water
COC1=C(OC)C(=O)C(CCCCCCCCCCO)=C(C)C1=O [Idebenon]	difficult to dissolve in water

test system: lipid-peroxide formation in cerebral homogenate; experiment: Lipid-peroxide formation inhibiting activity (TBA method, cerebral homogenate); format: biochemical, Wistar strain male rat; details: at 100 μM; rat cerebral homogenate, 30 minutes at 37° C
Description: (1) Lipid-peroxide formation inhibiting activity
(a) Preparation of cerebral homogenate
[…]. Then, cerebral irrigation was made with ice-cold physiological saline solution buffered with 50 mM phosphoric acid (pH value of 7.4, hereinafter referred to as "PBS"), and the whole brain was extracted. After removing the cerebellum, the cerebrum was weighed in the wet state, added with PBS of 9 times the weight and homogenized in ice-cold water with a teflon homogenizer. The cerebral homogenate was centrifuged at […] and 2200 rpm for 10 minutes, and 0.3 ml of the supernatant was partitioned into a ground stoppered light-resistant test tube to prepare a cerebral homogenate to be used for drug evaluation.
(b) Evaluation of test drug
The cerebral homogenate which was prepared by the above procedure (a) was added with 0.6 ml of PBS and 10 μl of ethanol solution which contained the test drug of […] in final concentration and incubated for 30 minutes in a water bath at 37° C. Then, the mixture was added with 200 μl of aqueous 35% solution of perchloric acid and centrifuged at 4° C and 2,600 rpm for 10 minutes to collect the supernatant.
In addition, 10 μl of ethanol (blank) was added instead of the test drug.
(c) Determination of lipid peroxide
The supernatant of 0.1 ml which was obtained in the above procedure (b) was added with 0.2 ml of aqueous 8.1% sodium dodecyl sulfate solution, 1.5 ml of 20% acetic acid buffer solution (pH of 3.5), 1.5 ml of 0.67% 2-thiobarbituric acid solution and 0.7 ml of distilled water and mixed. The mixed solution was heated for 60 minutes in boiling water bath, quenched with ice-cold water and added with 1.0 ml of distilled water and 5.0 ml of a mixture solution of pyridine and butanol (1:15). After 30 seconds of shaking, the mixed solution was centrifuged at 3,000 rpm for 10 minutes, and the supernatant was collected as the sample for lipid peroxide measurement.
In addition, 0.1 ml of Lipoperoxide-test reagent (Wako Pure Chemicals Co., Ltd.: 1,1,3,3-tetraethoxypropane is contained by […]) was added instead of the cerebral homogenate obtained in the above procedure (b) to prepare the reference solution
The amount of lipid peroxide was measured at a excitation wavelength of 515 nm and a fluorescence wavelength of 550 nm using a fluoro-spectrophotometer (Model 204, made by Hitachi, Ltd.) and calculated by the following formula: [formula] where, F=fluorescence intensity of the reference solution
f=fluorescence intensity of the test drug.
Then, the inhibition rates of the test drugs at each concentration were obtained for the TBA value of the blank under (b) above and IC value were calculated by the method of least square means.

Molecule	Percent inhibition at 100 μM
O=C(O)c1ccc(N2N=C(Cn3ccnc3)CC2=O)cc1 [Compound No. 49]	12.9%
O=C(O)c1ccc(N2N=C(c3cccnc3)CC2=O)cc1 [compound 7]	1.9%
O=C(O)Cc1ccc(N2N=C(c3cccnc3)CC2=O)cc1 [Compound No. 9, 4-[3-(3-pyridyl)-5-oxo-2-pyrazolin-1-il] phenylacetic acid]	2.6%
CCC1C(=O)N(C2CCCCC2)N=C1c1cccnc1 (stereo not shown) [compound 21]	1.0%
CCC1C(=O)N(c2ccccc2)N=C1Cn1ccnc1 (stereo not shown) [compound 52]	4.3%
COc1ccc(N2N=C(Cn3ccnc3)CC2=O)cc1 [compound 43]	30.2%
O=C(O)c1ccc(N2N=C(Cc3cccnc3)CC2=O)cc1 [compound 29]	17.6%
O=C1CC(c2cccnc2)=NN1c1ccccn1 [compound 12]	43.2%
CCCC1C(=O)N(C2CCCCC2)N=C1c1cccnc1 (stereo not shown) [compound 23]	46.1%
O=C1CC(Cn2ccnc2)=NN1C1CCCCC1 [compound 40]	39.4%
CC(C)C1C(=O)N(c2ccccc2)N=C1Cn1ccnc1 (stereo not shown) [compound 55]	27.3%

same assay, conditions: rat cerebral homogenate, incubated 30 minutes at 37° C

Molecule	IC50
CCOC(=O)Cc1ccc(N2N=C(c3cccnc3)CC2=O)cc1 [compound 8]	13.6 µM
CCc1ccc(N2N=C(Cn3ccnc3)CC2=O)cc1 [compound 42]	24.4 µM
COc1ccc(N2N=C(c3cccnc3)CC2=O)cc1 [Compound No. 4]	37 µM
CC1C(=O)N(c2ccccn2)N=C1c1cccnc1 (stereo not shown) [compound 19]	12.3 µM
Cc1ccc(N2N=C(c3cccnc3)CC2=O)cc1 [compound 2]	10.3 µM
O=C1CC(Cc2cccnc2)=NN1c1ccccc1 [compound 24]	16.4 µM
CCOC(=O)Cc1ccc(N2N=C(Cn3ccnc3)CC2=O)cc1 [compound 46]	60.5 µM
O=C1CC(Cn2ccnc2)=NN1c1ccc(Cl)c(Cl)c1 [compound 45]	11 µM
O=C1CC(c2ccco2)=NN1c1ccccc1 [compound 32]	4.3 µM
COc1ccc(N2N=C(c3ccco3)CC2=O)cc1 [compound 34]	6.5 µM
O=C1CC(c2cccnc2)=NN1c1ccccc1 [Compound No. 1, 1-phenyl-3-(3-pyridyl)-2-pyrazolin-5-one]	23.6 µM
CC1C(=O)N(c2ccc(Cl)cc2)N=C1c1cccnc1 (stereo not shown) [compound 17]	7.1 µM
CC1C(=O)N(c2ccccc2)N=C1c1cccnc1 (stereo not shown) [compound 14]	38.9 µM
CCC1C(=O)N(c2ccccc2)N=C1c1cccnc1 (stereo not shown) [compound 20]	29.4 µM
Cc1ccc(N2N=C(Cc3cccnc3)CC2=O)cc1 [compound 25]	7.4 µM
CCc1ccc(N2N=C(c3cccnc3)CC2=O)cc1 [compound 3]	4 µM
CCCC1C(=O)N(c2ccccc2)N=C1c1cccnc1 (stereo not shown) [compound 22]	28.2 µM
O=C1CC(Cc2cccnc2)=NN1c1ccccn1 [compound 31]	6.2 µM
O=C1CC(Cn2ccnc2)=NN1c1ccc(Cl)cc1 [compound 44]	22.7 µM
COc1ccc(N2N=C(c3cccnc3)C(C)C2=O)cc1 (stereo not shown) [compound 16]	46.3 µM
O=C1CC(c2cccnc2)=NN1C1CCCCC1 [compound 11]	16.9 µM

Molecule	IC50
O=C1CC(c2ccco2)=NN1C1CCCCC1 [compound 36]	8.3 µM
Cc1cccc(N2N=C(Cn3ccnc3)CC2=O)c1 [compound 41]	60 µM
O=C1CC(c2cccnc2)=NN1c1nc2ccccc2s1 [compound 13]	84.1 µM
Cc1ccc(N2N=C(c3ccco3)CC2=O)cc1 [compound 33]	4.1 µM
CC1C(=O)N(C2CCCCC2)N=C1c1cccnc1 (stereo not shown) [compound 18]	29.3 µM
O=C1CC(Cn2ccnc2)=NN1c1ccccc1 [compound 38]	60.1 µM
CCOc1ccc(N2N=C(c3cccnc3)CC2=O)cc1 [Compound No. 5]	12.9 µM
O=C1CC(c2cccnc2)=NN1c1ccc(Cl)cc1 [compound 6]	4.3 µM
CCOc1ccc(N2N=C(Cc3cccnc3)CC2=O)cc1 [compound 27]	12.2 µM
CCOC(=O)c1ccc(N2N=C(Cn3ccnc3)CC2=O)cc1 [compound 47]	35.1 µM
O=C1CC(Cc2cccnc2)=NN1C1CCCCC1 [compound 30]	24 µM
O=C1CC(c2ccco2)=NN1c1ccccn1 [compound 37]	15.4 µM
Cc1ccc(N2N=C(c3cccnc3)C(C)C2=O)cc1 (stereo not shown) [compound 15]	12.5 µM
Cc1ccc(N2N=C(Cn3ccnc3)CC2=O)cc1 [compound 39]	43 µM
CCC1C(=O)N(c2ccc(Cl)cc2)N=C1Cn1ccnc1 (stereo not shown) [compound 54]	37.8 µM
O=C1CC(c2ccco2)=NN1c1ccc(Cl)cc1 [compound 35]	3.7 µM
O=C1CC(Cn2ccnc2)=NN1c1ccccn1 [compound 51]	51.3 µM
O=C1CC(c2cccnc2)=NN1c1ccc(O)cc1 [Compound No. 10, 1-(4-hydroxyphenyl)-3-(3-pyridyl)-2-pyrazolin-5-one]	102 µM
COc1ccc(N2N=C(Cc3cccnc3)CC2=O)cc1 [compound 26]	23.6 µM
CCC1C(=O)N(c2ccc(C)cc2)N=C1Cn1ccnc1 (stereo not shown) [compound 53]	38.2 µM
O=C1CC(Cc2cccnc2)=NN1c1ccc(Cl)cc1 [compound 28]	4.1 µM
